Assay results from paper PMC9933482 (ACS Omega, 2023).
≈ marks a conversion by molar mass, not a printed value. Entries after “also recorded” stand apart in the source; their conditions may differ. Each block holds one compound with its values, some of them ahead of it.

Tests used:
[1] = target: recombinant human carbonic anhydrase XII (hCAXII) (Homo sapiens, UniProt O43570); assay: hCAXII enzyme inhibition assay; type: biochemical
[2] = target: human carbonic anhydrase IX (hCAIX) (Homo sapiens, UniProt Q16790); assay: biochemical
[3] = test system: caspase-9; assay: Caspase 9 assay; type: cell-based, human; conditions: for increase in level of active caspase-9 compared to control: HePG-2; for Casp9 OD: HepG2 cells treated with compound
[4] = test system: HePG-2 cells; assay: Annexin V-FITC/PI apoptosis and necrosis assay by flow cytometry; type: cell-based, human; conditions: for increase of early apoptotic ratio compared to control cells / increase of late apoptotic % compared to control cells / necrosis compared to the control cell HePG-2: HePG-2; for apoptosis total, cell content % / apoptosis early, cell content % / necrosis, cell content % / apoptosis late, cell content %: HePG-2, compound at IC50; for apoptosis early, cell content %: lower right quadrant; for necrosis, cell content %: upper left quadrant; for apoptosis late, cell content %: upper right quadrant
[5] = test system: HePG-2 cells; assay: Cell cycle analysis by DNA flow cytometry; type: cell-based, human; conditions: for %G0–G1 (DNA content) / %G2/M (DNA content) / %S (DNA content): HePG-2, compound at IC50, 24 h
[6] = test system: MCF-7 cell line; assay: MTT cytotoxicity assay, MCF-7; type: cell-based, human; conditions: for IC50: Homo sapiens, MCF7, 24 h, read-out: IC50 in μg/mL MCF-7, MTT, 24 h treatment
[7] = test system: HePG-2 cell line; assay: MTT cytotoxicity assay, HePG-2; type: cell-based, human; conditions: for IC50: Homo sapiens, HepG2, 24 h, read-out: IC50 in μg/mL HePG-2, MTT, 24 h treatment
[8] = test system: human lung fibroblast cell line WI38; assay: MTT cell viability, normal lung fibroblast WI38; type: cell-based; conditions: WI-38, read-out: IC50 in μg/mL WI38

Sequence of recombinant human carbonic anhydrase XII (hCAXII) (O43570 25-291): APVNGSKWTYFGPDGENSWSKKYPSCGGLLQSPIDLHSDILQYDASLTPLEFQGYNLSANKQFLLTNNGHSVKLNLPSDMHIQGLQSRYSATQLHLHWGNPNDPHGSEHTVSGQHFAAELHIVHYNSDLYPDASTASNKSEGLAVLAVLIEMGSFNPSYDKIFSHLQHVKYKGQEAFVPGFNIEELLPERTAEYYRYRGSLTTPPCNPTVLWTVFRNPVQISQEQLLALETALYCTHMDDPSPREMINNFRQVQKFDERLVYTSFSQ

Structure (SMILES): CCOC(=O)C1CSc2[nH]c(=O)sc2C1c1cn(-c2ccccc2)nc1-c1ccc(C)cc1 (stereo not drawn) [compound 7g, Ethyl 7-(3-(4-Methylphenyl)-1-phenyl-1H-pyrazol-4-yl)-2-oxo-3,5,6,7-tetrahydro-2H-thiopyrano[2,3-d]thiazole-6-carboxylate]
IC50 [1]: 0.566 ± 0.031 µM
IC50 [2]: 0.39 ± 0.019 µM
anticancer/cytotoxic activity in words, MCF-7 [6]: strong cytotoxicity
IC50 [6]: 12.3 ± 2.4 µg/mL (≈ 25.8 µM)
anticancer/cytotoxic activity in words, HePG-2 [7]: strong cytotoxicity
IC50 [7]: 11.9 ± 2.7 µg/mL (≈ 24.9 µM)
IC50 [8]: 30.3 ± 1.7 µg/mL (≈ 63.5 µM)

Structure (SMILES): CCOC(=O)C1CSc2[nH]c(=O)sc2C1c1cn(-c2ccccc2)nc1-c1ccc(OC)cc1 (stereo not drawn) [compound 7h, Ethyl 7-(3-(4-Methoxyphenyl)-1-phenyl-1H-pyrazol-4-yl)-2-oxo-3,5,6,7-tetrahydro-2H-thiopyrano[2,3-d]thiazole-6-carboxylate]
IC50 [1]: 0.409 ± 0.022 µM
IC50 [2]: 0.133 ± 0.006 µM
anticancer/cytotoxic activity in words, MCF-7 [6]: strong cytotoxicity
IC50 [6]: 11.4 ± 1.5 µg/mL (≈ 23 µM)
anticancer/cytotoxic activity in words, HePG-2 [7]: strong cytotoxicity
IC50 [7]: 12.2 ± 1.1 µg/mL (≈ 24.7 µM)
IC50 [8]: 25.3 ± 2.2 µg/mL (≈ 51.3 µM)

Structure (SMILES): CCOC(=O)C1CSc2[nH]c(=O)sc2C1c1cn(-c2ccccc2)nc1-c1ccc(Br)cc1 (stereo not drawn) [compound 7j, Ethyl 7-(3-(4-Bromophenyl)-1-phenyl-1H-pyrazol-4-yl)-2-oxo-3,5,6,7-tetra-hydro-2H-thiopyrano[2,3-d]thiazole-6-carboxylate]
IC50 [1]: 0.589 ± 0.03 µM
IC50 [2]: 0.239 ± 0.03 µM
anticancer/cytotoxic activity in words, MCF-7 [6]: strong cytotoxicity
IC50 [6]: 11.8 ± 4 µg/mL (≈ 21.8 µM)
anticancer/cytotoxic activity in words, HePG-2 [7]: strong cytotoxicity
IC50 [7]: 10.3 ± 4.8 µg/mL (≈ 18.9 µM)
IC50 [8]: 33.8 ± 2.5 µg/mL (≈ 62.2 µM)

Compounds with a lower IC50 [1], results first:

IC50 [1]: 0.202 ± 0.011 µM
IC50 [2]: 0.067 ± 0.003 µM
Structure (SMILES): N#CC1CSc2[nH]c(=O)sc2C1c1cn(-c2ccccc2)nc1-c1ccc(Br)cc1 (stereo not drawn) [compound 7e, 7-(3-(4-Bromophenyl)-1-phenyl-1H-pyrazol-4-yl)-2-oxo-3,5,6,7-tetrahydro-2H-thiopyrano-[2,3-d]thiazole-6-carbonitrile]
increase in level of active caspase-9 compared to control [3]: ~4 fold
Casp9 OD [3]: 0.813
increase of early apoptotic ratio compared to control cells [4]: 21 fold
increase of late apoptotic % compared to control cells [4]: approximately 101 fold
necrosis compared to the control cell HePG-2 [4]: ~3 fold
apoptosis total, cell content % [4]: 36.28%
apoptosis early, cell content % [4]: 11.91%
necrosis, cell content % [4]: 3.13%
apoptosis late, cell content % [4]: 21.24%
cell cycle comment (phase of arrest) ([5]; HePG-2): arrested in phase S; also recorded: cell growth arrest@S
increase of cell ratio in phase S compared to the control ([5]; HePG-2): 1.2 fold
%G0–G1 (DNA content) [5]: 41.39%
%G2/M (DNA content) [5]: 14.36%
%S (DNA content) [5]: 44.25%
IC50 [6]: 10.1 ± 2.1 µg/mL (≈ 20.4 µM)
IC50 [7]: 9.11 ± 3.2 µg/mL (≈ 18.4 µM)
IC50 [8]: 27.1 ± 3.3 µg/mL (≈ 54.6 µM)

IC50 [1]: 0.123 ± 0.007 µM
IC50 [2]: 0.287 ± 0.014 µM
Structure (SMILES): CCOC(=O)C1CSc2[nH]c(=O)sc2C1c1cn(-c2ccccc2)nc1-c1ccc(Cl)cc1 (stereo not drawn) [compound 7i, Ethyl 7-(3-(4-Chlorophenyl)-1-phenyl-1H-pyrazol-4-yl)-2-oxo-3,5,6,7-tetra-hydro-2H-thiopyrano[2,3-d]thiazole-6-carboxylate]
increase in level of active caspase-9 compared to control [3]: 3 fold
Casp9 OD [3]: 0.609
caspase-9 protein level vs untreated cells, Image J analysis ([3]; after normalization to β-actin): 2.98 fold
increase of early apoptotic ratio compared to control cells [4]: 52 fold
increase of late apoptotic % compared to control cells [4]: ~45 fold
necrosis compared to the control cell HePG-2 [4]: ~3 fold
apoptosis total, cell content % [4]: 41.13%
apoptosis early, cell content % [4]: 28.71%
necrosis, cell content % [4]: 2.91%
apoptosis late, cell content % [4]: 9.51%
cell cycle comment (phase of arrest) ([5]; HePG-2): arrested in phase G2/M; also recorded: cell growth arrest@G2/M
increase of cell ratio in phase G2/M compared to the control ([5]; HePG-2): 1.6 fold
%G0–G1 (DNA content) [5]: 39.56%
%G2/M (DNA content) [5]: 27.93%
%S (DNA content) [5]: 32.51%
IC50 [6]: 10.1 ± 1.5 µg/mL (≈ 20.2 µM)
IC50 [7]: 7.83 ± 2.1 µg/mL (≈ 15.7 µM)
IC50 [8]: 19.5 ± 1.6 µg/mL (≈ 39.1 µM)
